Measurements: patent US7202024B2, “bbc3 Gene promoter and methods for identifying modulators of apoptosis and bbc3 gene expression using a bbc3 gene promoter” (Immunogen Inc., priority 2001, dated 2007)
Peptide text beside a SMILES is read from it. * marks the point of attachment. Cbz = O=C(OCc1ccccc1)*; CH2F = FC*

Legend:
bbc3 mRNA [1] = assay: Northern blot of bbc3 mRNA in E1a/Ras/p53MER mouse fibroblast cell line; type: cell-based; settings: p53-estrogen receptor fusion cells, 4-OHT 100 nM, 5 hours
Source text: (§1) Northern blots were hybridized with a murine bbc3 cDNA probe, followed by re-hybridization with an actin probe.
Cell death induced by etoposide and other DNA-damaging drugs in murine fibroblasts is mediated, at least in part, by the p53 tumor suppressor (Levine, A. J., Cell 88:323–31 (1997); Vousden, K. H., Cell 103:691–4 (2000)).
(§2) All cell lines used were obtained from ATCC, unless otherwise noted. HeLa/Bcl-XL cells were generated by stable transfection of HeLa cells with a vector encoding a Flag-epitope tagged BCl-xL. Murine myeloid leukemia M1 cells containing a temperature sensitive p53-val135 mutant (M1p53ts), and E1A/ras transformed p53^−/−mouse embryonic fibroblasts containing a p53-estrogen receptor fusion, have been described previously (Vater, C. A., et al., Oncogene 13:739–48 (1996); Yonish-Rouach, E., et al., Nature 352:345–7 (1991)).
(§3) Total RNA was isolated from mouse thymocytes (RNeasy system, Qiagen). Poly(A)+RNA (FastTract system, Invitrogen) was prepared in all other experiments. 10 μg of total RNA or 3 μg of poly(A)+RNA per lane was denatured and separated by electrophoresis in 1% formaldehyde agarose gels. Northern blotting was performed following standard methods.

Bbc3 protein [2] = assay: Western blot of Bbc3 protein in HT29 cells; type: cell-based, human; settings: for ability of serum to suppress Bbc3 protein levels: HT29 cells in serum, 50 μM LY294002, 10 μM PD98059, 30 μM AG1478 or 50 μM AG1024; for ability of serum to suppress Bbc3 protein levels / Bbc3 protein expression: 24 hrs; for Bbc3 protein expression: 100 ng/ml IGF-1, 50 ng/ml EGF or 25 ng/ml PDGF
Method: (§4) HT29 cells were incubated for one day in the absence of serum (−), and then incubated in media containing either serum, 100 ng/ml IGF-1, 50 ng/ml EGF, or 25 ng/ml PDGF, for 24 hrs. Bbc3 was detected by western blot analysis, followed by sequential probing of the blot with anti-Bax and anti-Bcl-xL antibodies.
HT29 cells were cultured as in FIG. 6B and then incubated for 24 hrs in media containing either serum, 100 ng/ml IGF-1, or 100 ng/ml IGF-1 in the presence of 50 μM LY294002 (added 1 hr prior to IGF-1). Bbc3 was detected by western blot analysis.
HT29 cells were grown in the presence of serum (lane 1), and then incubated for 24 hrs in the absence of serum, or in the presence of serum supplemented with 50 μMLY294002.
HT29 cells were incubated for one day in the absence of serum (−), and then incubated in media containing either serum, 50 ng/ml EGF, or 50 ng/ml EGF+30 nM AG1478, for 24 hrs. Bbc3 was detected by western blot analysis.
HT29 cells were cultured in the presence of serum for one day (+) and then incubated for 24 hrs with serum or without serum, or in the presence of serum supplemented with either 10 μM PD98059, 30 μM AG1478, or 50 μM AG1024. Bbc3 was detected by western blot analysis, followed by reprobing of the blot with anti-Bax.
(§5) A mouse monoclonal antibody, KM140, was made against a recombinant GST-Bbc3 fusion protein. The KM140 epitope was mapped to residues 73–76 by probing a blot with arrayed overlapping Bbc3 peptides (Research Genetics). Cells were plated at 3–10×10^6 cells per 100 mm dish in either serum containing (10% FBS), or serum free media (0% FBS, 0.1% BSA). Cell lysates were prepared, electrophoresed (100 to 200 μg per lane) on 4–20% polyacrylamide reducing gels, and analyzed by western blotting as described previously (Chittenden, T., et al., EMBO J. 14:5589–96 (1995)).

bbc3 mRNA [3] = assay: Northern blot of bbc3 mRNA in NIH3T3 cells; type: cell-based, murine; settings: etoposide 50 μM, 6 hours
Method: as §1
To evaluate whether the activity of bbc3 might be under transcriptional control, the expression of bbc3 was examined in response to apoptotic stimuli likely to involve new mRNA/protein synthesis.
as §3

Bbc3 protein [4] = assay: Western blot of Bbc3 in serum-starved Jurkat cells; type: cell-based, human; settings: without serum 24 hrs, z-VAD 100 μM
Source text: (§6) Bbc3 and PARP were detected by western blot analysis.
(§7) Deprivation of serum is a strong pro-apoptotic stimulus for many cultured tumor cell lines, triggering cell death or sensitizing cells to other apoptotic stimuli. Thus, the effect of serum deprivation on bbc3 mRNA expression and Bbc3 protein levels was also examined, using a monoclonal antibody generated against recombinant human Bbc3. A striking increase in Bbc3 protein levels was observed upon serum deprivation in multiple human tumor cell lines (FIG. 5B), including cell lines that lack functional p53. […] Therefore, the induction of Bbc3 precedes caspase activation, and is not simply a response to the engagement of the cell death program.
as §5

PARP = assay: Western blot of PARP cleavage in serum-starved Jurkat cells; type: cell-based, human; settings: without serum 24 hrs, z-VAD 100 μM
Source text: as §6, §7, §5

GST-Bcl-xL = GST-Bcl-xL (Homo sapiens, UniProt Q07817); assay: Bcl-xL competition binding assay (ELISA, immobilized Bak BH3 peptide); settings: competition with immobilized Bak BH3 peptide
Method: Binding of GST-Bcl-xL to an immobilized Bak BH3 peptide was measured by ELISA (triplicate samples, +S.D.), in the presence of the indicated concentrations of a competing synthetic Bbc3 BH3 or Bak BH3 peptide.
Cell lysates were prepared and co-immunoprecipitation assays were performed as described previously (Chittenden, T., et al., EMBO J. 14:5589–96 (1995)). The Bcl-xL competition binding assay was performed as previously described (Zhou, X. M., et al., J. Biol. Chem. 275:25046–51 (2000)), using synthetic BH3 peptides comprising residues 133–152 of Bbc3, and residues 70–89 of Bak.

Bax = assay: Western blot of Bax in HT29 cells; type: cell-based, human; settings: serum-starved HT29 cells, 24 hrs; 100 ng/ml IGF-1 or 50 ng/ml EGF
Method: as §4, §5

Bcl-xL = assay: Western blot of Bcl-xL in HT29 cells; type: cell-based, human; settings: serum-starved HT29 cells, 24 hrs; 100 ng/ml IGF-1 or 50 ng/ml EGF
Method: as §4, §5

bbc3 gene promoter = bbc3 gene promoter luciferase reporter assay (pGL3/0.9) in HeLa/Bcl-xL cells; type: cell-based, human; settings: pGL3/0.9, no serum, 100 ng/ml IGF-1, 24 hrs
Method: The pGL3/0.9 bbc3 gene promoter luciferase reporter plasmid was transfected into HeLa-Bcl-xL cells. At 24 hrs after transfection, cells were incubated for an additional 24 hrs in the presence of 20% serum (+) with or without 50 μM LY294002, or in the absence of serum (−) with or without 100 ng/ml IGF-1. Luciferase activity was measured and normalized for transfection efficiency (β-galactosidase).
Additional experiments were performed to determine whether the bbc3 gene promoter was regulated by signal transduction pathways known to play a role in cell survival. A bbc3 gene promoter-luciferase reporter construct containing 0.9 kb of the bbc3 gene promoter region, was transfected into HeLa/Bcl-xL cells and the activity of the promoter measured by luciferase assays 48 hours after transfection. […] Thus, a PI-3 kinase dependent pathway controls, at least in part, the activity of the bbc3 gene promoter. […]
Luciferase assays were performed using the Dual-Light System (Tropix) for the combined detection of luciferase and β-galactosidase. […] Luciferase and β-galactosidase activities were measured 24 hours following transfection. […] Cell culture medium was changed to either DMEM containing 20% serum, or DMEM without serum, 24 hours following transfection and luciferase/β-galactosidase levels were measured after an additional 24 hours of incubation. […]

bbc3 mRNA [5] = assay: Northern blot of bbc3 mRNA in M1p53ts cells after temperature shift; type: cell-based, murine; settings: M1p53ts cells shifted to 32° C. for 6 hours in the presence of IL-6
Source text: as §1
(Yonish-Rouach, E., et al., Nature 352:345–7 (1991)). […] (FIG. 3C). […] (FIG. 3C).
as §2, §3

Sequence of GST-Bcl-xL (Q07817 whole entry): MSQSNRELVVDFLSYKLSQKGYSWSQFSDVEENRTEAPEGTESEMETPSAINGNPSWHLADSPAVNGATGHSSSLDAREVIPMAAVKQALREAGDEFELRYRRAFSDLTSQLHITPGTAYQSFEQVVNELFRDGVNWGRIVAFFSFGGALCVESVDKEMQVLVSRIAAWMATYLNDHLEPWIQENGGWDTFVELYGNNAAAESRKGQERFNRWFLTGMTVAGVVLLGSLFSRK

4-hydroxytamoxifen [4-OHT]
bbc3 mRNA levels (bbc3 mRNA [1]): sufficient to induce bbc3 mRNA levels

COc1cc2ncnc(Nc3cccc(Cl)c3)c2cc1OC [AG1478]
ability of serum to suppress Bbc3 protein levels (Bbc3 protein [2]): blocked the ability of EGF and serum to suppress Bbc3 protein expression
ability of EGF to suppress Bbc3 protein expression (Bbc3 protein [2]; serum-starved HT29 cells, 50 ng/ml EGF + 30 nM AG1478, 24 hrs): blocked the ability of EGF and serum to suppress Bbc3 protein expression

COc1cccc(-c2cc(=O)c3ccccc3o2)c1N [PD98059]
ability of serum to suppress Bbc3 protein levels (Bbc3 protein [2]): impaired the ability of serum to suppress Bbc3 protein expression

COc1cc([C@@H]2c3cc4c(cc3[C@@H](O[C@@H]3O[C@@H]5CO[C@@H](C)O[C@H]5[C@H](O)[C@H]3O)[C@H]3COC(=O)[C@H]23)OCO4)cc(OC)c1O [etoposide]
bbc3 mRNA levels (bbc3 mRNA [3]): rapid induction of bbc3 mRNA levels

CC(C)(C)c1cc(C=C(C#N)C#N)cc(Br)c1O [tyrphostin AG1024]
ability of serum to suppress Bbc3 protein levels (Bbc3 protein [2]): impaired the ability of serum to suppress Bbc3 protein expression

CC(NC(=O)C(NC(=O)OCc1ccccc1)C(C)C)C(=O)NC(CC(=O)O)C(=O)CF (stereo not drawn) [z-VAD] (Cbz-Val-Ala-Asp-CH2F; configuration not given here)
induction of Bbc3 protein levels by serum deprivation (Bbc3 protein [4]): no impact on the induction of Bbc3 protein levels
cleavage of the caspase substrate PARP (PARP): prevented cleavage of the caspase substrate, PARP

Bbc3 BH3 peptide: 20 amino acid synthetic peptide encompassing the Bbc3 BH3 domain (residues 133 to 152) (WAREIGAQLRRMADDLNAQY)
binding affinity to recombinant GST-Bcl-xL in vitro (GST-Bcl-xL): affinity comparable to a previously characterized Bak BH3 peptide

EGF: growth factor with broad anti-apoptotic activity (NSDSECPLSHDGYCLHDGVCMYIEALDKYACNCVVGYIGERCQYRDLKWWELR; UniProt P01133 971-1023, looked up)
Bbc3 protein expression (Bbc3 protein [2]; serum-starved HT29 cells): strongly inhibited Bbc3 protein expression
Bax protein level (Bax): no effect
Bcl-xL protein level (Bcl-xL): no effect

IGF-1: growth factor with broad anti-apoptotic activity
Bbc3 protein expression (Bbc3 protein [2]; serum-starved HT29 cells): strongly inhibited Bbc3 protein expression
Bax protein level (Bax): no effect
Bcl-xL protein level (Bcl-xL): no effect
induction of bbc3 gene promoter activity (luciferase) in the absence of serum (bbc3 gene promoter): substantially reduced

IL-6: IL-6, which suppresses apoptosis induced by p53 in M1 cells
induction of bbc3 mRNA by wild-type p53 (bbc3 mRNA [5]): did not prevent induction of bbc3 mRNA

PDGF
Bbc3 protein expression (Bbc3 protein [2]; serum-starved HT29 cells): failed to suppress Bbc3 levels
